“Also recorded” adds a separate entry of the source. Read-outs that look alike come from different tables or passages of the source.
Experiments:
[1] = test system: α2 macroglobulin mRNA; details: betaxolol treatment; still significantly increased over normal IOP
Text: Retinas were dissected from eyes treated as indicated (n=3) and mRNAs were purified and studied by Northern blotting with labeled α2 macroclobulin or actin (control) probes.

[2] = test system: retinal ganglion cells (RGCs); assay: RGC loss in high IOP (cauterization) glaucoma model, retrograde RGC labeling and counting; format: in vivo, rat; details: for RGC loss (% at day 42 vs normal): 14 days high, 28 normal IOP
Experimental: Episcleral cauterization of rat eyes was performed under anesthesia.
RGCs were labeled with 3% DII (1,1-dioctadecyl-3,3,3,3-tetramethylindocarbocyanine perchlorate) or with 3% fluorogold. Briefly, Wistar rats were anesthetized and their heads were mounted in a stereotactic apparatus.
7 days after dye injection, the vasculature of the rats were perfused-fixed (transcardiac perfusion in phosphate-buffer (PB), followed by 4% PFA in PB) and the eyes were enucleated. After post-fixing for 1 hour cuts were made through the sclera to form a Maltese cross pattern and retinas detached from the eyecup at the optic nerve head. The retinas were flat-mounted on glass slides (vitreous side up) air-dried and cover-slipped with mounting medium (Molecular Probes). The retinas were observed under fluorescence microscopy (Zeiss). […] RGCs were recognized in flat mounted retinas by the presence of retrogradely transported dye and by morphology. RGCs in all 4 quadrants (16 images per retina) were averaged and presented as […] of area counted.
A puncture was made on the eye wall with a 30 G needle to allow the entrance of a cannula in the […]. A glass cannula (10 μm thickness), prepared with an upright microelectrode puller (Narishige) was connected through plastic tubing to a Hamilton syringe to dispense solutions of anti-α2 macroglobulin rabbit antibody (Calbiochem), control PBS, or control rabbit antibody (Sigma). Injections were done at day 14 and 21 post-surgery (in sham-operated control eyes with normal IOP, and cauterized eyes with high IOP). The intraocular injections were in 2 μl volumes containing a total of 2 μg antibody. This amount was selected because in quantitative western blots of whole rat retina there was an estimated total of ˜1 μg of α2 macroglobulin in glaucomatous eyes (data not shown). Ocular pressure was not affected by intraocular injections, the high IOP eyes remained high IOP and the normal IOP eyes remained normal IOP (data not shown).
A second paradigm was used to confirm the role of α2 macroglobulin in RGC death. Neutralizing antibodies to α2 macroglobulin were injected intraocularly in glaucomatous eyes with high IOP to determine whether RGC death could be prevented. The experimental model was to induce high IOP for 14 days to trigger α2 macroglobulin over-expression and RGC damage, before the initiation of α2 macroglobulin neutralizing therapy. Neutralization was used as single therapy, or was combined with daily betaxolol treatment to better reflect the clinical setting in which glaucoma patients would be simultaneously treated with pressure-lowering drugs. Neutralizing antibodies were given at days 14 and 21 after cauterization, and surviving RGCs, identified by retrograde labeling, were counted at day 42 post-surgery. […]

[3] = test system: rat eyes; details: for IOP of normal eyes: daily topical betaxolol 0.5% eye drops; for IOP of cauterized (high IOP) eyes: daily topical betaxolol 0.5% eye drops from day 3 post-cauterization
Experimental: Episcleral cauterization of rat eyes was performed under anesthesia. After a conjunctival incision, extra-ocular muscles were isolated and the major limbal draining veins were identified based on location, relative immobility, larger caliber and branching pattern. Cauterization of three episcleral vessels in the right eye was done with a 30″ cautery tip. The left eye in each animal was used as normal IOP control after sham-surgery (conjunctival incisions with no cauterization).
IOP was gauged using a Tonopen XL tonometer under light anesthesia (intramuscular injection of ketamine, […]; xylazine, 0.32 mg/kg; and acepromazine, 0.4 mg/kg).
A selective β-blocker (betaxolol 0.5%, Alcon) was applied daily as eye drops.

[4] = test system: retinal mRNA; details: day 28
Experimental: RNA preparation. Total RNA was isolated from retinal tissue using TRIZOL® (Life Technologies). Three retinas belonging to the same experimental group were pooled for the gene microarray experiment. RNA was then further purified using the RNAEASY® (QIAGEN®). The integrity of the RNA samples was assessed by running aliquots on RNA 6000 Nano LabChip (Agilent) using the 2100 bioanalyzer (Agilent).
Probe synthesis, hybridization and scanning were done according to Affymetrix protocol, as a service at the McGill University and Genome Quebec Innovation Centre. For the experiments shown, Rat U34 Genome Arrays (8,700 genes, Affymetrix) were used. Briefly, RNA samples were first converted to double stranded cDNA (T7-(dT)24 primer (Genset)). Then the cDNAs were purified and used to generate the biotinylated cRNA probes (Bioarray High Yield RNA transcript labeling kit (Enzo diagnostics)). An aliquot of the purified cRNA was analyzed on RNA 6000 Nano LabChip (Agilent) to verify the integrity and size distribution. Immediately after hybridization the chip was placed in the Affymetrix GeneChip Fluidics Station 400 (Affymetrix). In total, 10 low-stringency washes (63 SSPE, 0.01% Tween-20, 0.005% Antifoam) and 4 high-stringency washes (100 mM MES, 0.1 M NaCl, 0.01% Tween-20, 50 C) were performed (all reagents from Sigma). The array was then incubated with SAPE® (streptavidin/phycoerythrin stain, Molecular Probes), followed by 10 low stringency washes. The array was incubated with biotinylated anti-streptavidin antibody (Vector Laboratories) and washed again with 15 low stringency washes. Specifically bound probe was detected by placing the array in the Agilent GeneArray scanner 2500 (Affymetrix). The scanned images were analyzed using the Microarray Analysis Suite version 5.0 (Affymetrix). Statistical analyses were done with the help of the Kensington Discovery Edition version 1.8 (Inforsense).
Retinas were carefully dissected out to insure that only retinal mRNAs were prepared for gene microarray studies. Samples were obtained from sham operated eyes (normal IOP control, Group 1), eyes at 28 days high IOP (test, Group 2), and eyes 28 days after cauterization plus daily betaxolol treatment from day 3 onwards (Group 3). […] Samples from each of these groups (n=4 each group) were studied by gene microarrays (see FIG. 2 flowchart). A cutoff of 2.5-fold was used to afford significance (p<0.05).

CC(C)NCC(O)COc1ccc(CCOCC2CC2)cc1 (stereo not drawn) [betaxolol]
increase of retinal α2 macroglobulin mRNA at day 28 of high IOP [1]: attenuated slightly | RGC loss (% at day 42 vs normal) ([2]; daily betaxolol days 14-42, no Ab injection): 19±1% | RGC loss (% at day 42 vs normal) ([2]; daily betaxolol days 14-42, no Ab injection, listed as Betaxolol): 19 ± 1% | RGC loss (% at day 42 vs normal) ([2]; daily betaxolol days 14-42 plus control serum days 14 and 21): 21 ± 5% | rate of RGC loss ([2]; daily betaxolol, IOP normalized from day 7 onwards): reduces the rate of RGC loss, but does not prevent it; also recorded: reduced the average rate of RGC loss, but did not prevent it | IOP of normal eyes [3]: no significant effect on normal IOP | IOP of cauterized (high IOP) eyes [3]: full normalization of IOP after 3 days | IOP of cauterized (high IOP) eyes ([3]; listed as Betaxolol): fully normalized high IOP from day 7 onward | IOP of normal eyes ([3]; listed as Betaxolol): no significant effect | Relative Change versus non-cauterized eyes, cauterized + betaxolol B ([4]; gene ATPase alpha-1 subunit (M74494)): 1.5 | Relative Change versus non-cauterized eyes, cauterized + betaxolol B ([4]; gene Amphiphysin 1 (Y13381)): −1.1 | Relative Change versus non-cauterized eyes, cauterized + betaxolol B ([4]; gene Amyloid precursor-like protein 2 (X77934)): 1.1 | Relative Change versus non-cauterized eyes, cauterized + betaxolol B ([4]; gene Asparagine synthase (U07201)): −1.1 | Relative Change versus non-cauterized eyes, cauterized + betaxolol B ([4]; gene B-2 arylamine N-acetyltransferase (U01347)): 1.5 | Relative Change versus non-cauterized eyes, cauterized + betaxolol B ([4]; gene Beta A3/A1 crystallin (X15143)): −1.1 | Relative Change versus non-cauterized eyes, cauterized + betaxolol B ([4]; gene Clone RKIAS43 (AA892520)): 2.9 | Relative Change versus non-cauterized eyes, cauterized + betaxolol B ([4]; gene Crybb2 (X83671)): −1.0 | Relative Change versus non-cauterized eyes, cauterized + betaxolol B ([4]; gene Cyclic nucleotide-gated cation channel (AJ000515)): 3.4 | Relative Change versus non-cauterized eyes, cauterized + betaxolol B ([4]; gene Gial fibrillary acidic protein (AF028784)): 1.4 | Relative Change versus non-cauterized eyes, cauterized + betaxolol B ([4]; gene Gzα (U77483)): 1.1 | Relative Change versus non-cauterized eyes, cauterized + betaxolol B ([4]; gene Helicase RAP 30 (L01267)): 1.2 | Relative Change versus non-cauterized eyes, cauterized + betaxolol B ([4]; gene PSD-95/SAP90-asociated protein-4 (U67140)): −1.0 | Relative Change versus non-cauterized eyes, cauterized + betaxolol B ([4]; gene Protein phosphatase 1 gamma (S78217)): 2.5 | Relative Change versus non-cauterized eyes, cauterized + betaxolol B ([4]; gene RBCK (AB011369)): 1.3 | Relative Change versus non-cauterized eyes, cauterized + betaxolol B ([4]; gene Ras-related p23 (X12535)): 1.1 | Relative Change versus non-cauterized eyes, cauterized + betaxolol B ([4]; gene Reggie1-1 (AF023302)): 1.8 | Relative Change versus non-cauterized eyes, cauterized + betaxolol B ([4]; gene Ribosomal protein L23-related product (U62635)): 3.8 | Relative Change versus non-cauterized eyes, cauterized + betaxolol B ([4]; gene S-adenosylmethionine synthase (J05571)): 1.1 | Relative Change versus non-cauterized eyes, cauterized + betaxolol B ([4]; gene SPARC (U75928)): 1.9 | Relative Change versus non-cauterized eyes, cauterized + betaxolol B ([4]; gene cDNA clone rx00382 (AI639155)): 7.2 | Relative Change versus non-cauterized eyes, cauterized + betaxolol B ([4]; gene cDNA clone rx01295 (AI639375)): 4.8 | Relative Change versus non-cauterized eyes, cauterized + betaxolol B ([4]; gene cDNA clone rx05013 (AI639441)): 2.8 | Relative Change versus non-cauterized eyes, cauterized + betaxolol B ([4]; gene α2 macroglobulin (M23566)): 5.6

Reference: patent US8563520B2, “Treatment of ocular disease with inhibitors of alpha2 macroglobulin protein” (McGill University, priority 2005, dated 2013)
